Experiment: Inhibition of Na+K+ATpase from pig cortex
Parameters: species or system Sus scrofa

C[C@@H]1O[C@@H](O[C@H]2C[C@@H](O)[C@]3(CO)[C@H]4[C@H](O)C[C@]5(C)[C@@H](C6=CC(=O)OC6)CC[C@]5(O)[C@@H]4CC[C@]3(O)C2)[C@H](O)[C@H](O)[C@H]1O [OUABAIN]
IC50: 600 nM

From ChEMBL document CHEMBL1151616, “Na+-K+-ATPase inhibitors from Lysimachia japonica” (J Nat Prod, 1984)
